Reference: US12521393B2, “Cytotoxicity targeting chimeras for CCR2-expressing cells” (GLAXOSMITHKLINE INTELLECTUAL PROPERTY DEVELOPMENT LIMITED, priority 2021, dated 2026)
Where “and” joins values, the source holds several entries; their conditions need not be identical. Equal values may be shown once.

Experiments:
[1] = Alternative dosing strategy (Example 206): blood concentration of small molecule ARM compound; format: in vivo; conditions: co-dosed vs sequentially dosed intravenously with anti-cotinine antibody
Source text: FIG. 5: Alternative dosing strategy of small molecule ARM compound to anti-cotinine antibody, as described in Example 206, with anti-cotinine antibody administered intravenously and ARM compound (Example 1) administered subcutaneously following a 2-hour delay from antibody dosing at various molar ratios of small molecule ARM: antibody; data shown is blood concentration of small molecule ARM compound at various timepoints following administration.

CCR2+ expressing cells = experiment: Alternative dosing strategy (Example 206): percent depletion of CCR2+ expressing cells by flow cytometry; format: in vivo; conditions: co-dosed vs sequentially dosed intravenously with anti-cotinine antibody
[2] = target: anti-cotinine antibody (SEQ ID NO: 9/10, humanized version); experiment: SPR binding of anti-cotinine antibody to ARM compounds, Biacore 8k, 25° C., humanized antibody (Example 202)
Source text: (§1) Anti-cotinine antibodies having a heavy chain sequence of SEQ ID NO: 9 and a light chain sequence of SEQ ID NO: 10 (humanized version) or a heavy chain sequence of SEQ ID NO: 11 and a light chain sequence of SEQ ID NO: 12 (rabbit version) were captured via the Fc domain to a protein A or A/G surface on flow cell 2 of a CMS sensor chip using the Biacore 8k.
(§2) After antibody capture, a 1500 second wait step was included to reduce drift in the binding step. ARM compounds of Formula (I) were then flowed over the captured antibodies at varying top concentrations ranging from 250 nM to 4 μM (see Table 6 below for top concentration values). The top concentration was diluted 4-fold over 5 dilutions (with a 0 nM compound cycle included to blank subtract the data). Association and dissociation times of the ARMs compounds of Formula (I) varied between experiments as follows and indicated in Table 6 below: reference 1-association for 600 seconds and dissociation for 1200 seconds at 20 μl/min; reference 2-association for 240 seconds and dissociation for 300 seconds at 30 μl/min; reference 3-association for 360 seconds and dissociation for 600 seconds at 30 μl/min. Anti-cotinine antibody bound to the protein A or A/G surface was regenerated using 50 mM NaOH. Experiments were run at 25° C. at pH 7.4 using HBS-EP+ buffer using Biacore 8K control software and evaluated using Biacore Insight Evaluation software. Curves were fit with the 1:1 kinetic fit inherent to the software, utilising a local Rmax and local drift setting.
(§3) Anti-cotinine antibody was tested for binding to ARMs compounds of Formula (I) of the invention in the above assay in or more experimental runs and the results are shown in Table 6 below. Affinity is reported as a pKd value. The pKd value is the negative log of the Kd value, wherein the Kd value is the dissociation constant measured in molar (M) as noted above. For compounds tested in more than one experimental run, the pKd value is reported as an average.

[3] = test system: anti-cotinine antibody (SEQ ID NO: 11/12, rabbit version); experiment: SPR binding of anti-cotinine antibody to ARM compounds, Biacore 8k, 25° C., rabbit antibody (Example 202)
Source text: as §1, §2, §3

[4] = time reference 3 (association 360 s, dissociation 600 s, 30 μl/min)

SMILES	PK (blood concentration of small molecule ARM compound) [1]	PD (percent depletion of CCR2+ expressing cells) (CCR2+ expressing cells)	kd ([2]; time reference 1 (association 600 s, dissociation 1200 s, 20 μl/min))	ka [2, 4]	kd [2, 4]	pKd [2, 4]	ka [3, 4]	kd [3, 4]	pKd [3, 4]	pKd ([3]; time reference 2 (association 240 s, dissociation 300 s, 30 μl/min))
CC(C)N(C)[C@@H]1CC[C@H](N2CC[C@H](Nc3ncnc4ccc(C(F)(F)F)cc34)C2=O)[C@H](NC(=O)[C@H]2CC[C@H](NC(=O)CCCO[C@H]3CC[C@H](OCCNC(=O)[C@H]4CC(=O)N(C)[C@@H]4c4cccnc4)CC3)CC2)C1 [Example 1, (2S,3S)-N-(2-(((1R,4S)-4-(4-(((1R,4R)-4-(((1R,2S,5R)-5-(Isopropyl(methyl)amino)-2-((S)-2-oxo-3-((6-(trifluoromethyl)quinazolin-4-yl)amino)pyrrolidin-1-yl)cyclohexyl)carbamoyl)cyclohexyl)amino)-4-oxobutoxy)cyclohexyl)oxy)ethyl)-1-methyl-5-oxo-2-(pyridin-3-yl)pyrrolidine-3-carboxamide]	unchanged	unchanged	0.000456 s⁻¹ and 0.000649 s⁻¹	1.64e+06 M⁻¹ s⁻¹	0.000414 s⁻¹	9.6	5.57e+06 M⁻¹ s⁻¹	0.000156 s⁻¹	10.55	
CN1C(=O)C[C@H](C(=O)NCCO[C@H]2CC[C@H](OCCCC(=O)N[C@H]3CC[C@H](C(=O)N[C@@H]4C[C@H](NC(C)(C)C)CC[C@@H]4N4CC[C@H](Nc5ncnc6ccc(C(F)(F)F)cc56)C4=O)CC3)CC2)[C@H]1c1cccnc1 [Example 10, (2S,3S)-N-(2-(((1R,4S)-4-(4-(((1R,4R)-4-(((1R,2S,5R)-5-(tert-Butylamino)-2-((S)-2-oxo-3-((6-(trifluoromethyl)quinazolin-4-yl)amino)pyrrolidin-1-yl)cyclohexyl)carbamoyl)cyclohexyl)amino)-4-oxobutoxy)cyclohexyl)oxy)ethyl)-1-methyl-5-oxo-2-(pyridin-3-yl)pyrrolidine-3-carboxamide]				1.42e+06 M⁻¹ s⁻¹	0.000484 s⁻¹	9.47			kd outside	Poor fit
